Measured values taken from PubChem BioAssay AID1259407 (Chemical Carcinogenesis Research Information System (CCRIS), 2018).
Activity calls are given as the source filed them. No rule for the calls is given here.

Tested on: CCRIS mutagenicity, Ames/micronucleus/aberration tests
Test: CCRIS mutagenicity studies
[1] = Test System: AMES SALMONELLA TYPHIMURIUM, Strain/Indicator: TA1537, Metabolic Activation: NONE, Method: STANDARD PLATE

With `CCN(CC)c1ccc(C(=C2C=CC(=[N+](CC)CC)C=C2)c2ccc(N(CC)CC)cc2)cc1` the mutagenic call (Test System: AMES SALMONELLA TYPHIMURIUM, Strain/Indicator: TA98, Metabolic Activation: HAMSTER, LIVER, S-9, AROCLOR 1254 (10%), Method: STANDARD PLATE) was “inactive; negative”, the mutagenic call (Test System: AMES SALMONELLA TYPHIMURIUM, Strain/Indicator: TA98, Metabolic Activation: NONE, Method: STANDARD PLATE) was “inactive; negative” and the mutagenic call (Test System: AMES SALMONELLA TYPHIMURIUM, Strain/Indicator: TA98, Metabolic Activation: RAT, LIVER, S-9, AROCLOR 1254 (10%), Method: STANDARD PLATE) was “inactive; negative”. The mutagenic call (Test System: AMES SALMONELLA TYPHIMURIUM, Strain/Indicator: TA100, Metabolic Activation: HAMSTER, LIVER, S-9, AROCLOR 1254 (10%), Method: STANDARD PLATE) was “inactive; negative”, the mutagenic call (Test System: AMES SALMONELLA TYPHIMURIUM, Strain/Indicator: TA100, Metabolic Activation: NONE, Method: STANDARD PLATE) was “inactive; negative” and the mutagenic call (Test System: AMES SALMONELLA TYPHIMURIUM, Strain/Indicator: TA100, Metabolic Activation: RAT, LIVER, S-9, AROCLOR 1254 (10%), Method: STANDARD PLATE) was “inactive; negative”. The mutagenic call (Test System: AMES SALMONELLA TYPHIMURIUM, Strain/Indicator: TA1535, Metabolic Activation: NONE, Method: STANDARD PLATE) was “inactive; negative”, the mutagenic call (Test System: AMES SALMONELLA TYPHIMURIUM, Strain/Indicator: TA1535, Metabolic Activation: RAT, LIVER, S-9, AROCLOR 1254 (10%), Method: STANDARD PLATE) was “inactive; negative” and the mutagenic call (Test System: AMES SALMONELLA TYPHIMURIUM, Strain/Indicator: TA1537, Metabolic Activation: HAMSTER, LIVER, S-9, AROCLOR 1254 (10%), Method: STANDARD PLATE) was “inactive; negative”. For the same molecule, the mutagenic call [1] was “inactive; negative”, the mutagenic call (Test System: AMES SALMONELLA TYPHIMURIUM, Strain/Indicator: TA1537, Metabolic Activation: RAT, LIVER, S-9, AROCLOR 1254 (10%), Method: STANDARD PLATE) was “inactive; negative” and the mutagenic call (Test System: AMES SALMONELLA TYPHIMURIUM, Strain/Indicator: TA1538, Metabolic Activation: HAMSTER, LIVER, S-9, AROCLOR 1254 (10%), Method: STANDARD PLATE) was “inactive; negative”. The mutagenic call (Test System: AMES SALMONELLA TYPHIMURIUM, Strain/Indicator: TA1538, Metabolic Activation: NONE, Method: STANDARD PLATE) was “inactive; negative”, the mutagenic call (Test System: AMES SALMONELLA TYPHIMURIUM, Strain/Indicator: TA1538, Metabolic Activation: RAT, LIVER, S-9, AROCLOR 1254 (10%), Method: STANDARD PLATE) was “inactive; negative” and the mutagenic call (Test System: Mouse lymphoma, Strain/Indicator: L5178Y (tk+/tk-), Metabolic Activation: None, Method: Suspension/plate) was “inactive; negative”. The mutagenic call (Test System: Mouse lymphoma, Strain/Indicator: L5178Y (tk+/tk-), Metabolic Activation: Rat, Liver, S-9, Aroclor 1254, Method: Suspension/plate) was “inactive; inconclusive (previous results negative)”.

For `CN(C)CCNC(=O)c1cccc2[nH]c(-c3ccccc3)nc12`, the mutagenic call [1] was “active; positive”.
